{"source": "paper PMC6689897", "about": "“Drugging an undruggable pocket on KRAS” (Proceedings of the National Academy of Sciences of the …, 2019)", "tested_on": "NCI-H358 cells", "test": "Soft agar proliferation assay in low serum", "format": "cell-based", "details": "Homo sapiens, soft agar and low serum conditions, read-out: EC50 antiproliferative effect", "description": "263 (ATCC® CCL-224™; grown in RPMI 10% FCS) and SK-MEL-28 (ATCC® HTB-\n264 72™, grown in EMEM 10% FCS). Cell cultures were incubated at 37 °C and 5% CO2 in\n265 a humidified atmosphere, with medium change or subcultivation 2-3 times a week.\n269 Cells were lysed in 1x lysis buffer (Cell Signaling #9803) and protein concentration\n270 normalized to 10µg/µL. Proteins were separated by SDS-Page and transferred to\n271 Nitrocellulose membranes (BioRad) according to standard protocols. Membranes were\n273 (Milipore #06-182) and Tubulin (Cell Signaling #2144) in 5% BSA in TBST blocking\n274 buffer. After primary antibody incubation membranes were incubated with anti-rabbit\n275 IgG secondary antibody (Dako #P0448) and detected with ECL (GE Healthcare Life\n278 Compound treatment of cells\n279 Synthesized or purchased (ARS 1620) compounds were dissolved in 100% DMSO and\n280 stored at a concentration of 10mM at -20°C. Compounds were either serially diluted in […]\nQuantification of living cells […]\n291 manufacturer’s recommendation. Luminescence was read in a 2030 VICTOR X5 (Perkin […]\n305 were trypsinized, counted and plated in 60 µL culture medium containing 2% FCS […]\n313 added according to manufacturer’s instructions. Fluorescence intensity was determined\n314 using a fluorescence reader (2030 VICTOR X5, Perkin Elmer). […]\n319 MAPK pathway signaling (pERK, pAKT quantification) […]", "data": [{"smiles": "Cn1cnc(Cn2ccc3ccc(CNCc4[nH]c5ccccc5c4[C@H]4NC(=O)c5ccc(O)cc54)cc32)c1", "note": "[Compound 1]", "values": [{"measurement": "EC50", "value": 6.7, "unit": "µM"}]}]}
